Data: US20260007741A1, “LIPID NANOPARTICLES FOR DELIVERY OF NUCLEIC ACIDS AND VACCINES” (priority 2024, published 2026)
Like-named read-outs stand apart in the source and are kept apart here.

Tests used:
MutuDC1940 cells = assay: Transfection efficiency of mCherry mRNA LNPs in murine dendritic cells (flow cytometry); type: cell-based; conditions: for mRNA endosomal escape and translation / mRNA transfection: MutuDC1940 cells, mCherry mRNA LNPs; for transfection activity when incorporated into LNPs: murine dendritic cells (Example 8)
Protocol: • 1. MutuDC1940 cells (Applied Biological Materials, T0528) were grown according to supplier's instructions in T75 flasks. They were plated at 180,000 cells/well into 24-well plate one day prior to transfection. • 2. LNPs were added in triplicate to each well at the desired mRNA concentration (e.g. 1 μg/mL) in 1 mL media and after 24 h the cells were washed once with DPBS (VWR 02-0119-1000). • 3. 0.2 mL of DPBS (plus 5 mM EDTA, pH 7.4) was then added to facilitate detachment. • 4. The cells were placed at 37° C. for 3 min, until detached. • 5. 0.5 ml DPBS added to each well and the liquid transferred to a flow cytometry tube (Falcon 5 mL #352054). • 6. The tube was centrifuged at 1100 rpm for 3-5 min and the liquid poured off. • 7. 100 μL of Zombie Violet (Biolegend) (diluted 1:500 in PBS) was added to each tube. • 8. The tubes were gently tapped to resuspend cells and placed in the dark for 15 min at RT. • 9. To the cells 0.5 mL of (paraformaldehyde 4% in PBS:DPBS 1:1) was added and the cells flicked gently to resuspend and put on ice for 30 min. Another 2 ml PBS was added. • 10. The cells were pelleted as above and resuspended in 0.5 mL DPBS with 5% BSA and placed in the fridge until needed.
Cells suspensions were analyzed by an Attune NxT flow cytometer using the VL1 and YL2 for live/dead and mCherry fluorescence signals respectively. Gating analysis was performed on FloJo software.

[1] = Apparent solubility of phosphatidylserine salts in ethanol (shake flask); type: physicochemical; conditions: for Solubility, mM phosphatidylserine: 100% ethanol at room temperature, 24 hours, average±SD (N=3)
Protocol: Apparent solubilities of phosphatidylserine salts in ethanol were determined by shake flask technique. Sodium and ammonium salts of phosphatidylserines in the powder form were obtained from Avanti Polar Lipids (Alabama, USA). Aliquots of phosphatidylserine salt powder were placed in 12×75 borosilicate glass tubes in triplicate. Three mL of 200 proof ethanol (catalog number E-7023, MilliporeSigma, USA) were added, the tubes were closed with polyethylene snap caps, agitated using vortex mixer for 10-15 s to obtain uniform suspensions, and placed in a horizontal position on a rocking platform at room temperature (20-22° C.) overnight. The ambient temperature at the end of incubation was 20.4-20.9° C. After 24 hours incubation, the suspensions were visually checked for the presence of a solid phase, allowed to settle under gravity, and the supernatant solutions were passed through a 0.2-μm PTFE syringe membrane filters. The first 0.5 ml of the filtrate was discarded, the next 1 ml was collected, and phosphatidylserine in the filtrates was quantified by phospholipid phosphate assay as follows: 20 μL aliquots of the filtrate were taken in triplicate into glass tubes, ethanol was evaporated in a stream of argon at 70° C., and the residue was digested in a mixture of 60 μL concentrated sulfuric acid and 20 μL 30% hydrogen peroxide for 10 min at 180-190° C. The digested samples were diluted with 1 mL of deionized water, 20 μL of 10% sodium sulfite was added to destroy any residual peroxide, and the samples were incubated on a boiling water bath for 15 min to hydrolyze any condensed phosphate species. The samples were chilled down to room temperature, mixed with 0.2 mL of 2% (w/w) ammonium molybdate solution and 20 μL of 10% (w/w) ascorbic acid solution, incubated on a boiling water bath for 10 min, and chilled down in a water bath at room temperature. The phosphate concentration was determined from the optical density of the formed blue phosphomolybdic acid at 825 nm using five-point standard curve from concurrently run standards prepared from the NIST-traceable commercial phosphate standard solution diluted to cover the range of 0-2 mM phosphate (coefficient of determination R^2 >0.9999). Solubility of phosphatidylserine salts was expressed in molarity units of phosphatidylserine (Table 40). The data are average±SD (N=3).

human dendritic cells = assay: Transfection efficiency of mCherry mRNA LNPs in human dendritic cells (flow cytometry); conditions: human dendritic cells (Example 9)
Protocol: Four days prior to transfection, monocytes were isolated using CD14 isolation kit (StemCell) from PBMCs of healthy donors. […] The monocytes were cultured with IL-4 (R&D 1000 IU/mL) and GM-CSF (R&D, 800 IU/mL) in a 6 well dish at 1×10^6 cells/mL at 37° C., 5% CO2. After 4 days the immature DCs were harvested and seeded in a 96 well round bottom plate at 50,000 cells/well. LNPs were thawed by placing the vials in a 37° C. water bath for 30 seconds, or until the sample had almost fully melted. The vials were immediately placed on ice until use. The LNPs were added to final concentrations of 1 μg/ml and 0.1 μg/mL mRNA. For 1 μg/mL treatment, LNPs were added directly to each well then wells were mixed by pipetting. For 0.1 μg/mL treatment, LNPs were diluted 1:10 in complete media then added to each well and mixed by pipetting. After 4 h a maturation cytokine cocktail was added directly to each well consisting of TNF-α (R&D, 10 ng/mL), IL-1b (R&D, 2 ng/mL), IL-6 (R&D, 1000 IU/mL), and PGE1 (R&D, 1 μg/mL). After 24 h, the cells were centrifuged, washed in PBS and analyzed by flow cytometry for mCherry fluorescence. Gating analysis was performed using CytExpert software.

TLR7/8 = assay: In vivo inflammatory profile of UUGU oligoribonucleotides in LNP formulations using different ICLs (Example 28; serum and dLNs); design: species or system mice; conditions: 1 ug UUGU dose
Source text: Blood and dLNs (pooled iliac, popliteal and inguinal LNs) were harvested 6 hrs post-injection. […] No. 740622). LNs were weighed prior to lysis, and analyte concentrations were converted from pg/mL to pg/mg of tissue mass. […] The analyte concentrations in the blood serum are reported in Table 68 and the mean fold changes over vehicle treatment are shown in Table 69. The analyte concentrations in the dLNs are reported in Table 70 and the mean fold changes over vehicle treatment are shown in Table 71. The primary aim of this study was to examine the effect of various ionizable cationic lipids (ICLs) on the delivery of a UUGU oligoribonucleotide to TLR7/8 located intracellularly in endolysosomal compartments. We also sought to determine whether PS-targeting of LNPs influenced activity. […] UUGU oligos were encapsulated in LNPs formulated with KC-OA family ICLs, AKG-UO-DM2, DODMA, or DODAP. We also tested the ALC-0315 and SM-102 LNP formulations. The effect of PS targeting on biological activity was also assessed using either DOPS or DPPS formats.

[2] = for % of main lipid peak to To: 1% H2O2/100 μM Fe(III)Cl, 37° C.
Protocol: The aim of this studies was to compare stability of ionizable cationic lipids under accelerated oxidation.
Prior to the experiment, 75 μl of a lipid stock was mixed with 75 μl of ultra-pure water (Rx Biosciences, cat #P01-UPW02-1000) to make 0.5 mM of cationic lipids and 5 mM of linoleic acid respectively. A combined stock in water of 10% H2O2 (Sigma-Aldrich, cat #H1009) and 1 mM of Fe(III)Cl (Sigma-Aldrich, cat #372870) was freshly by prepared prior to the experiment. To make 1% final concentration of H2O2 and 100 μM Fe(III)Cl, 15 μl of 10% H2O2/1 mM Fe(III)C1 stock was added to 135 μl of individual lipids The liposomes and individual lipids were incubated with H2O2/Fe(III)C1 at 37° C. and then 5 μl from each sample was taken at different time points (0, 24, 48, 72 and 96 hours) and dissolved in 90 μl of MeOH for HPLC analysis. Degradation of the main lipid peak was analyzed using Thermo Scientific Vanquish Flex UHPLC occupied with Charged Aerosol Detector (CAD) and Phenomenex™ Kinetex C8 column (L=150 mm, D=2.1 mm, Particle Size=1.7 μm, 100 A).
The data are presented as a percentage of the main lipid peak measured at different time points relative to the lipid peak measured at time zero.

TLR9 = assay: In vivo inflammatory profile of CpG-ODN 1018 in LNP formulations with various ICLs (Example 27; serum and dLNs); design: species or system BALB/c mice; conditions: 1 μg dose CpG
[3] = Semple et al., (2010) Nature Biotech. 28 (2) 172-176; cited from earlier work

Row | Compound | mRNA endosomal escape and translation / mRNA transfection (MutuDC1940 cells) | % of main lipid peak to To ([2]; 24 h) | % of main lipid peak to To ([2]; 48 h) | % of main lipid peak to To ([2]; 72 h) | further results
1 | CCCCCCCC/C=C\CCCCCCCCC1(CCCCCCCC/C=C\CCCCCCCC)OCC(CCCCN(C)C)O1 (racemic) [KC4-OA, 4-rac-2,2-di((Z)-octadec-9-en-1-yl)-1,3-dioxolan-4-yl)-N,N-dimethylbutan-1-amine] | relatively efficient | – | – | – | –
2 | CCCCCCCC/C=C\CCCCCCCC(=O)OC[C@H](CCCN(C)C)OC(=O)CCCCCCC/C=C\CCCCCCCC [AKG-OA-DM3, (S)-5-(dimethylamino)pentane-1,2-diyl dioleate] | relatively poor for mRNA transfection | – | – | – | –
3 | CCCCCCCCCCCCCCCCCC(=O)OC[C@H](COP(=O)(O)OC[C@H](N)C(=O)[O-])OC(=O)CCCCCCCCCCCCCCCCC.[Na+] [DSPS sodium] | – | – | – | – | Solubility, mM phosphatidylserine [1]: 0.111 ± 0.009 mM
4 | CCCCC/C=C\CCCC/C=C\CCCCCC1(CCCCC/C=C\CCCC/C=C\CCCCC)OC[C@H](CCCN(C)C)O1 [KC3-01, 3-((S)-2,2-di((6Z,12Z)-octadeca-6,12-dien-1-yl)-1,3-dioxolan-4-yl)-N,N-dimethylpropan-1-amine] | – | – | – | – | transfection activity when incorporated into LNPs (human dendritic cells): highest activity
5 | CCCCCCCC/C=C\CCCCCCCCC1(CCCCCCCC/C=C\CCCCCCCC)OC[C@H](CCCN(C)C)O1 [KC3-OA, 3-((S)-2,2-di((Z)-octadec-9-en-1-yl)-1,3-dioxolan-4-yl)-N,N-dimethylpropan-1-amine] | relatively efficient | 88.9 ± 0.5% | 84.6 ± 0.9% | 79.0 ± 0.1% | induction of a proinflammatory signature by UUGU LNPs by ICL (TLR7/8): most efficient; transfection activity when incorporated into LNPs (human dendritic cells): highest activity; transfection activity when incorporated into LNPs (MutuDC1940 cells): highest activity
6 | CCCCCCCCCCCCCCCCCC1(CCCCCCCCCCCCCCCCC)OC[C@H](CCCN(C)C)O1 [KC3-17, (S)-3-(2,2-diheptadecyl-1,3-dioxolan-4-yl)-N,N-dimethylpropan-1-amine] | – | 92.9 ± 0.3% | 91.8 ± 1.2% | 90.2 ± 1.2% | transfection activity when incorporated into LNPs (MutuDC1940 cells): completely inactive
7 | CCCCCCCC/C=C\CCCCCCCCC1(CCCCCCCC/C=C\CCCCCCCC)OC[C@H](CCN(C)C)O1 [KC2-OA, 2-((S)-2,2-di((Z)-octadec-9-en-1-yl)-1,3-dioxolan-4-yl)-N,N-dimethylethan-1-amine] | relatively efficient | – | – | – | –
8 | CCCCCCCCCCCCCCCC(=O)OC[C@H](COP(=O)(O)OC[C@H](N)C(=O)[O-])OC(=O)CCCCCCCCCCCCCCC.[Na+] [DPPS sodium] | – | – | – | – | Solubility, mM phosphatidylserine [1]: 0.201 ± 0.004 mM
9 | CCCCCCCC/C=C\CCCCCCCCOC[C@H](CN(C)C)OCCCCCCCC/C=C\CCCCCCCC [DODMA, reference compound] | – | – | – | – | induction of a proinflammatory signature by UUGU LNPs by ICL (TLR7/8): most efficient
10 | CCCCCCCC/C=C\CCCCCCCC(=O)OC[C@H](CCN(C)C)OC(=O)CCCCCCC/C=C\CCCCCCCC [AKG-OA-DM2, (S)-4-(dimethylamino)butane-1,2-diyl dioleate] | relatively poor for mRNA transfection | – | – | – | levels of IL-12p70 and type I IFN-α in the blood and dLNs (TLR9): highest levels; induction of a proinflammatory signature by UUGU LNPs by ICL (TLR7/8): most potent LNP adjuvant formulation; induction of a proinflammatory signature by UUGU LNPs by ICL (TLR7/8; listed as AKG-UO-DM2): most efficient
11 | CCCCC/C=C\C/C=C\CCCCCCCCC1(CCCCCCCC/C=C\C/C=C\CCCCC)OCC(CCCN(C)C)O1 (stereo not drawn) [KC3, reference compound] | – | 11.2 ± 1.0% | 10.5 ± 0.5% | 0 ± 0% | degradation relative to other cationic lipids under the forced oxidation with H2O2 [2]: fastest degradation
12 | CCCCCCCCCCCCCCCCCC(=O)OC[C@H](COP(=O)(O)OC[C@H](N)C(=O)O)OC(=O)CCCCCCCCCCCCCCCCC.N [DSPS ammonium] | – | – | – | – | Solubility, mM phosphatidylserine [1]: 0.034 ± 0.004 mM
13 | CCCCCCCC/C=C\CCCCCCCC1(CCCCCCC/C=C\CCCCCCCC)OC[C@H](CCCN(C)C)O1 [KC3-17 (C8:1), 3-((S)-2,2-di((Z)-heptadec-8-en-1-yl)-1,3-dioxolan-4-yl)-N,N-dimethylpropan-1-amine] | – | 66.1 ± 0.6% | 58.4 ± 1.5% | 45.9 ± 4.7% | transfection activity when incorporated into LNPs (human dendritic cells): highest activity; transfection activity when incorporated into LNPs (MutuDC1940 cells): highest activity
14 | CCCCCCCCCCCCCCCC(=O)OC[C@H](COP(=O)(O)OC[C@H](N)C(=O)O)OC(=O)CCCCCCCCCCCCCCC.N [DPPS ammonium] | – | – | – | – | ethanol solubility compared to ammonium salt of DSPS or the sodium salts [1]: several-fold higher; Solubility, mM phosphatidylserine [1]: 0.865 ± 0.060 mM
15 | CCCCCC/C=C\CCCCCCCCC1(CCCCCCCC/C=C\CCCCCC)OC[C@H](CCCN(C)C)O1 [KC3-PA, 3-((S)-2,2-di((Z)-hexadec-9-en-1-yl)-1,3-dioxolan-4-yl)-N,N-dimethylpropan-1-amine] | – | 62.7 ± 0.1% | 59.2 ± 0.8% | 60.2 ± 0.6% | transfection activity when incorporated into LNPs (human dendritic cells): highest activity
16 | CCCCC/C=C\C/C=C\CCCCCCCCC1(CCCCCCCC/C=C\C/C=C\CCCCC)OCC(CCN(C)C)O1 (stereo not drawn) [KC2] | – | – | – | – | activity of KC2 compared to KC3 [3]: 6 fold
